Laboratory results reported in US9624249B2, “Nucleoside kinase bypass compositions and methods” (Merck Sharp & Dohme Corp., priority 2013, dated 2017).
Like-named read-outs stand apart in the source and are kept apart here.

How the values were obtained:
[1] = tested on: hepatitis virus C (HCV) genotype 1b; test: HCV subgenomic replicon assay (RHEPTAQ), genotype 1b; format: cell-based
From the text: (§1) Table 3 and Table 4 summarize the measured activities of these prodrugs as assessed in a subgenomic replicon assay (RHEPTAQ), against genotypes 1a, 1b and 2a.

[2] = tested on: hepatitis virus C (HCV) genotype 1a; test: HCV subgenomic replicon assay (RHEPTAQ), genotype 1a; format: cell-based
From the text: as §1

[3] = tested on: hepatitis virus C (HCV) genotype 2a; test: HCV subgenomic replicon assay (RHEPTAQ), genotype 2a; format: cell-based
From the text: as §1

[4] = Tox: EdU/CellCount CC50; format: cell-based
[5] = tested on: peripheral blood mononuclear cells (PBMCs); conditions: pbmc; cited from earlier work
[6] = tested on: HCV GT1b; conditions: Cho et al. 2012, Table 1; cited from earlier work
[7] = tested on: HIV-1 (H9IIIB virus); test: Viking assay: multiple round HIV-1 infection assay in MT4-GFP cells; format: cell-based
Procedure: Assessing Antiviral Potency in a Multiple Round HIV-1 Infection Assay
The antiviral activity of the tenofovir prodrugs was assessed in a Viking assay performed as follows. HIV-1 replication was monitored using MT4-gag-GFP clone D3 (hereafter designate MT4-GFP), which are MT-4 cells modified to harbor a GFP reporter gene, the expression of which is dependent on the HIV-1 expressed proteins tat and rev. Productive infection of an MT4-GFP cell with HIV-1 results in GFP expression approximately 24 h post-infection.
MT4-GFP cells were maintained at 37° C./5% CO2/90% relative humidity in RPMI 1640 supplemented with 10% fetal bovine serum, 100 U/ml penicillin/streptomycin, and 400 μg/ml G418 to maintain the reporter gene. For infections, MT4-GFP cells were placed in the same medium lacking G418 and infected overnight with H9IIIB virus at an approximate multiplicity of infection of 0.01 in the same incubation conditions. Cells were then washed and resuspended in either RPMI 1640 containing 10% normal human serum at 1.6×10^5 cells/mL (10% NHS conditions) or in 100% normal human serum at 2×10^5 cells/mL (100% NHS conditions). Compound plates were prepared by dispensing compounds dissolved in DMSO into wells of 384 well poly D lysine-coated plates (0.2 μl/well) using an ECHO acoustic dispenser. Each compound was tested in a 10 point serial 3-fold dilution (typical final concentrations: 4.2 μM-0.21 nM). Controls included no inhibitor (DMSO only) and a combination of three antiviral agents (efavirenz, indinavir, and the integrase strand transfer inhibitor N1-ethyl-N1-((7S,10R)-2-((4-fluorobenzyl)-carbamoyl)-3-hydroxy-7-methoxy-4-oxo-4,6,7,8,9,10-hexahydropyrimido-[1,2-a]azepin-10-yl)-N2,N2-dimethyloxalamide at final concentrations of 4 μM each). Cells were added (50 μL/well) to compound plates and the infected cells were maintained at 37° C./5% CO2/90% relative humidity.
Infected cells were quantified at two time points, ˜48 h and ˜72 h post-infection, by counting the number of green cells in each well using an Acumen eX3 scanner. The increase in the number of green cells over ˜24 h period gives the reproductive ratio, R0, which is typically 5-15 and has been shown experimentally to be in logarithmic phase (data not shown) Inhibition of R0 is calculated for each well, and IC50s determined by non-linear 4-parameter curve fitting.

[8] = CTG LD50 (cytotoxicity)
[9] = tested on: HIV-1; conditions: HIV-1, PBMCs; cited from earlier work
[10] = Hepatitis C virus, RHEPTAQ replicon, genotype 1a; read-out: EC50(1a)
[11] = Hepatitis C virus, RHEPTAQ replicon, genotype 1a; read-out: EC90(1a)
[12] = Hepatitis C virus, read-out: EC50(2a), RHEPTAQ replicon, genotype 2a
[13] = Hepatitis C virus, read-out: EC90(2a), RHEPTAQ replicon, genotype 2a
[14] = Hepatitis C virus, RHEPTAQ replicon, genotype 1b, read-out: EC50(1b)
[15] = Hepatitis C virus, RHEPTAQ replicon, genotype 1b, read-out: EC90(1b)
[16] = Hepatitis C virus, RHEPTAQ replicon, genotype 2a, read-out: EC90(2a)
[17] = RHEPTAQ replicon, genotype 1b, read-out: EC50(1b)
[18] = RHEPTAQ replicon, genotype 1b, read-out: EC90(1b)
[19] = RHEPTAQ replicon, genotype 1a; read-out: EC50(1a)
[20] = RHEPTAQ replicon, genotype 1a; read-out: EC90(1a)
[21] = RHEPTAQ replicon, genotype 2a, read-out: EC50(2a)
[22] = RHEPTAQ replicon, genotype 2a, read-out: EC90(2a)
[23] = Human immunodeficiency virus 1, read-out: Viking IP
[24] = Human immunodeficiency virus 1, inhibition of reproductive ratio R0, MT4-GFP cells infected with H9IIIB, serum condition not stated, read-out: Viking IP

## C#CCO[C@H]1CSSCC1OP(=O)(NCc1ccccc1)OCC1O[C@@H](n2ccc3c(N)ncnc32)[C@](C)(O)[C@@H]1O (some centres unmarked)
[1]; Hepatitis C virus, read-out: EC50(1b), RHEPTAQ replicon, genotype 1b
  EC50: 8500 nM
[1]; Hepatitis C virus, read-out: EC90(1b), RHEPTAQ replicon, genotype 1b
  EC90: 17700 nM
[2]; [10]
  EC50: 12800 nM
[2]; [11]
  EC90: 25500 nM
[3]; [12]
  EC50: 1900 nM
[3]; [13]
  EC90: 7900 nM

## COCCOCCOCCO[C@H]1CSSCC1OP1(=O)OCC2O[C@@H](n3ccc4c(N)ncnc43)[C@](C)(O)[C@@H]2O1 (some centres unmarked)
[1]; [14]
  EC50: 183 nM
[1]; [15]
  EC90: 448 nM
[2]; [10]
  EC50: 1000 nM
[2]; [11]
  EC90: 3300 nM
[3]; Hepatitis C virus, RHEPTAQ replicon, genotype 2a, read-out: EC50(2a)
  EC50: 249 nM
[3]; [16]
  EC90: 896 nM

## C#CCO[C@H]1CSSCC1OP1(=O)OCC2O[C@@H](n3ccc4c(N)ncnc43)[C@](C)(O)[C@@H]2O1 (some centres unmarked)
[1]; [14]
  EC50: 78 nM
[1]; [15]
  EC90: 318 nM
[2]; [10]
  EC50: 159 nM
[2]; [11]
  EC90: 991 nM
[3]; [12]
  EC50: 135 nM
[3]; [13]
  EC90: 115 nM

## C[C@@]1(O)[C@@H]2OP(=O)(OC3CSSC[C@@H]3OCc3ccccc3)OCC2O[C@H]1n1ccc(=O)[nH]c1=O (single isomer, unassigned) [drawing 109 isomer 1]
[1]; [17]
  EC50: 110 nM
[1]; [18]
  EC90: 383 nM
[2]; [19]
  EC50: 70 nM
[2]; [20]
  EC90: 233 nM
[3]; [21]
  EC50: 90 nM
[3]; [22]
  EC90: 442 nM

## C[C@@]1(O)[C@@H]2OP(=O)(OC3CSSC[C@@H]3OCc3ccccc3)OCC2O[C@H]1n1ccc(=O)[nH]c1=O (single isomer, unassigned) [drawing 109 isomer 2]
[1]; [17]
  EC50: 37 nM
[1]; [18]
  EC90: 245 nM
[2]; [19]
  EC50: 50 nM
[2]; [20]
  EC90: 154 nM
[3]; [21]
  EC50: 44 nM
[3]; [22]
  EC90: 244 nM

## C[C@@]1(O)[C@@H]2OP(=O)(OC3CSSC[C@@H]3OCc3ccccc3)OCC2O[C@H]1n1ccc(=O)[nH]c1=O (single isomer, unassigned) [drawing 109 isomer 3 and 4]
[1]; [17]
  EC50: 362 nM
[1]; [18]
  EC90: 783 nM
[2]; [19]
  EC50: 305 nM
[2]; [20]
  EC90: 782 nM
[3]; [21]
  EC50: 315 nM
[3]; [22]
  EC90: 1070 nM

## C[C@@]1(O)[C@@H]2OP(=S)(OC3CSSC[C@@H]3OCc3ccccc3)OCC2O[C@H]1n1ccc(=O)[nH]c1=O (single isomer, unassigned) [drawing 110 isomer 1 and 2]
[2]; read-out: EC50(1a); RHEPTAQ replicon, genotype 1a
  EC50: 4000 nM
[2]; read-out: EC90(1a); RHEPTAQ replicon, genotype 1a
  EC90: 8000 nM

## COCCOCCOCCO[C@H]1CSSCC1OP1(=O)OCC2O[C@@H](n3ccc(=O)[nH]c3=O)[C@](C)(O)[C@@H]2O1 (single isomer, unassigned) [drawing 111 isomer 1 and 2]
[1]; [14]
  EC50: 2000 nM
[1]; [15]
  EC90: 8000 nM
[2]; [10]
  EC50: 4000 nM
[2]; [11]
  EC90: 9000 nM
[3]; [16]
  EC90: 21000 nM
[3]; [21]
  EC50: 6000 nM

## COCCOCCOCCO[C@H]1CSSCC1OP1(=O)OCC2O[C@@H](n3ccc(=O)[nH]c3=O)[C@](C)(O)[C@@H]2O1 (single isomer, unassigned) [drawing 111 isomer 3 and 4]
[1]; [17]
  EC50: 4000 nM
[1]; [18]
  EC90: 12000 nM
[2]; [19]
  EC50: 7000 nM
[2]; [20]
  EC90: 16000 nM
[3]; [21]
  EC50: 14000 nM
[3]; [22]
  EC90: 37000 nM

## C[C@@]1(O)[C@@H]2OP(=O)(OC3CSSC[C@@H]3OCc3ccccc3)OCC2O[C@H]1n1ccc(=O)[nH]c1=O (single isomer, unassigned) [drawing 112]
[1]; Hepatitis C virus, Table 4, genotype 1b, read-out: Replicon: EC50 (1b)
  EC50: 110 nM
[2]; Hepatitis C virus, Table 4, genotype 1a; read-out: Replicon: EC50 (1a)
  EC50: 70 nM
[3]; Hepatitis C virus, Table 4, genotype 2a, read-out: Replicon: EC50 (2a)
  EC50: 90 nM
[4]; CellCount readout, read-out: Tox: CellCount CC50
  CC50: 8500 nM
[4]; EdU readout, read-out: Tox: EdU CC50
  CC50: 4100 nM

## CC(Cn1cnc2c(N)ncnc21)OCP(=O)(O)OP(=O)(O)OP(=O)(O)O (stereo in doubt) [tenofovir diphosphate]
[5]
  half-life in peripheral blood mononuclear cells (PBMCs): > 100 h

## C[C@@]1(O)[C@H](O)[C@@H](CO)O[C@H]1n1ccc(=O)[nH]c1=O [2′-C-Me-U, 2′-C-methyl-uridine]
[6]
  EC50: 15200 nM

## C[C@H](Cn1cnc2c(N)ncnc21)OCP(=O)(Oc1ccccc1)OC1CSSC[C@@H]1OCc1ccccc1 (some centres unmarked) [Entry 1]
[7]; [23]
  IC50: 1260 nM
[8]
  CTG LD50: >8.403 µM

## C[C@H](Cn1cnc2c(N)ncnc21)OCP(=O)(Oc1ccccc1F)OC1CSSC[C@@H]1OCc1ccccc1 (some centres unmarked) [Entry 2]
[7]; [23]
  IC50: 605 nM
[8]
  CTG LD50: >8.403 µM

## C[C@H](Cn1cnc2c(N)ncnc21)OCP(=O)(Oc1cccc(F)c1)OC1CSSC[C@@H]1OCc1ccccc1 (some centres unmarked) [Entry 3]
[7]; [23]
  IC50: 620 nM
[8]
  CTG LD50: >42.02 µM

## C[C@H](Cn1cnc2c(N)ncnc21)OCP(=O)(Oc1ccc(F)cc1)OC1CSSC[C@@H]1OCc1ccccc1 (some centres unmarked) [Entry 4]
[7]; [23]
  IC50: 2000 nM
[8]
  CTG LD50: >8.403 µM

## C[C@H](Cn1cnc2c(N)ncnc21)OCP(=O)(Oc1ccc(Cl)cc1)OC1CSSC[C@@H]1OCc1ccccc1 (some centres unmarked) [Entry 5]
[7]; [23]
  IC50: 1590 nM
[8]
  CTG LD50: >8.403 µM

## C[C@H](Cn1cnc2c(N)ncnc21)OCP(=O)(Oc1cccc(Cl)c1)OC1CSSC[C@@H]1OCc1ccccc1 (some centres unmarked) [Entry 6]
[7]; [23]
  IC50: 1880 nM
[8]
  CTG LD50: >8.403 µM

## C[C@H](Cn1cnc2c(N)ncnc21)OCP(=O)(Oc1ccccc1Cl)OC1CSSC[C@@H]1OCc1ccccc1 (some centres unmarked) [Entry 7]
[7]; [23]
  IC50: 1590 nM
[8]
  CTG LD50: >8.403 µM

## Cc1cccc(OP(=O)(CO[C@H](C)Cn2cnc3c(N)ncnc32)OC2CSSC[C@@H]2OCc2ccccc2)c1 (some centres unmarked) [Entry 8]
[7]; [23]
  IC50: 1120 nM
[8]
  CTG LD50: >42.02 µM

## Cc1ccc(OP(=O)(CO[C@H](C)Cn2cnc3c(N)ncnc32)OC2CSSC[C@@H]2OCc2ccccc2)cc1 (some centres unmarked) [Entry 9]
[7]; [23]
  IC50: 1640 nM
[8]
  CTG LD50: >42.02 µM

## Cc1ccccc1OP(=O)(CO[C@H](C)Cn1cnc2c(N)ncnc21)OC1CSSC[C@@H]1OCc1ccccc1 (some centres unmarked) [Entry 10]
[7]; [23]
  IC50: 2920 nM
[8]
  CTG LD50: >42.02 µM

## COc1ccc(OP(=O)(CO[C@H](C)Cn2cnc3c(N)ncnc32)OC2CSSC[C@@H]2OCc2ccccc2)cc1 (some centres unmarked) [Entry 11]
[7]; [23]
  IC50: 2920 nM
[8]
  CTG LD50: >42.02 µM

## COc1ccccc1OP(=O)(CO[C@H](C)Cn1cnc2c(N)ncnc21)OC1CSSC[C@@H]1OCc1ccccc1 (some centres unmarked) [Entry 12]
[7]; [23]
  IC50: 1550 nM
[8]
  CTG LD50: >39.78 µM

## COc1cccc(OP(=O)(CO[C@H](C)Cn2cnc3c(N)ncnc32)OC2CSSC[C@@H]2OCc2ccccc2)c1 (some centres unmarked) [Entry 13]
[7]; [23]
  IC50: 1810 nM
[8]
  CTG LD50: >8.403 µM

## C[C@H](Cn1cnc2c(N)ncnc21)OCP(=O)(Oc1ccccc1)OC1CSSC[C@H]1OCc1ccccc1 (some centres unmarked) [Entry 14]
[7]; [23]
  IC50: 1260 nM
[8]
  CTG LD50: >8.403 µM

## C[C@H](Cn1cnc2c(N)ncnc21)OCP(=O)(O)OC1CSSC[C@@H]1OCc1ccccc1 (some centres unmarked) [Entry 15]
[7]; [24]
  IC50: > 8400 nM

## C[C@H](Cn1cnc2c(N)ncnc21)OCP(=O)(O)OC1CSSC[C@H]1OCc1ccccc1 (some centres unmarked) [Entry 16]
[7]; [24]
  IC50: > 8400 nM

## C[C@H](Cn1cnc2c(N)ncnc21)OCP(=O)(O)O [tenofovir]
[9]
  EC50: 1200 nM

## C[C@@]1(O)[C@H](O)[C@@H](COP(=O)(O)OP(=O)(O)OP(=O)(O)O)O[C@H]1n1ccc(=O)[nH]c1=O [triphosphate 2′-C-Me-U]
[6]
  EC50: 1320 nM
